Consider seven compounds from PubChem BioAssay (NCI).

Common to all, as to assay: NCI-60 cell line screen, 48 h
Test [1] relates to CCRF-CEM leukemia.
Test [2] relates to HOP-92 NSCLC.
Test [3] relates to KM12 colon.
Test [4] concerns LOX IMVI melanoma.
Test [5] concerns M14 melanoma.
The test system of test [6] is MCF7 breast.
Test [7] deals with MDA-MB-231 breast.
The subject of test [8] is OVCAR-5 ovarian.
Test [9] has as its system RXF 393 renal.
The subject of test [10] is SR leukemia.

“And” between values parts separate entries of the source, which are not always exact repeats. Identical values can stand only once.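 Tested at 5 concentrations; 48 h exposure; 96-well plates; endpoints linearly interpolated, else capped at highest concentration. GI50: concentration for 50% inhibition of growth. TGI is the concentration that stops growth completely.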 Where only a bound is given, the exact number is not on record here.

In the case of `CCCOc1nc(SCCC)nc2c1cnn2-c1ccccc1`, the GI50 is 56.7 µM in [1]; 2.93 µM in test [2]; 93.1 µM in test [3]; more than 100 µM in test [4]; more than 100 µM in [5]; more than 100 µM in test [6]. Moreover, the GI50 in [7] is more than 100 µM; in [8], more than 100 µM; in test [9], 78.9 µM; in test [10], 32.2 µM. The TGI in test [1], in test [2], in [3], in [4], in test [5] and in test [6] was more than 100 µM throughout. In addition, the TGI in test [7], in test [8], in test [9] and in test [10] was more than 100 µM each time.

As to `CCCCN(CCCC)c1ccc(C(=NC(C)CCCN(CC)CC)c2ccc(N(C)C)cc2)cc1` (stereo not drawn), the GI50 in [1] is 1.22 µM; in test [2] it was 0.609 µM; in test [3], 0.965 µM; in test [4] it was 0.775 µM; in test [5] it was 0.873 µM; in test [6], 0.836 µM. Also, the GI50 was 0.863 µM in test [7], 1.31 µM in test [8], 0.73 µM in test [9] and 0.708 µM in test [10]. Also, the TGI in [1] is 3.87 µM; in test [2], 1.71 µM; in [3] it was 2.33 µM; in test [4], 1.46 µM; in test [5] it was 1.72 µM; in [6], 1.95 µM. For the same compound, the TGI stood at 1.82 µM in [7], 3.47 µM in test [8], 1.46 µM in test [9] and 1.82 µM in [10].

For the compound `Cn1ccnc1C(=O)/C=C/c1ccc(CC(=O)Nc2ccc(C(F)(F)F)cc2)cc1`, the GI50 in test [1] was 0.658 µM; in test [2], 2.4 µM; in test [3], 3.23 µM; in [4], 2.18 µM; in test [5], 3.72 µM; in test [6], 1.02 µM. Besides, the GI50 in [7] is 4.02 µM; in test [8], 2.45 µM; in test [9], 2.72 µM; in test [10], 0.718 µM. Besides, the TGI in test [1] was more than 16.7 µM; in test [2] it was 5.66 µM; in test [3], 8.69 µM; in [4], 4.37 µM; in test [5], 8.3 µM; in [6] it was 14.5 µM. Further, the TGI turned out to be 15.2 µM in test [7], 5.21 µM in [8], 5.49 µM in test [9] and 9.94 µM in test [10].

`COc1cc(C(=O)/C=C/c2cccnc2Nc2ccccc2)cc(OC)c1OC`: the GI50 in [1] is 0.321 µM; in test [2], 0.392 µM; in [3], 0.929 µM; in [4] it was 0.499 µM; in test [5], 1.5 µM; in [6] it was 0.357 µM. For the same compound, the GI50 in test [7] is 1.4 µM; in test [8], 1.54 µM; in test [9], 1.12 µM; in test [10], 0.346 µM. Further, the TGI in [1] worked out at 1.19 µM; in [2], 2.07 µM; in [3] it was 2.54 µM; in test [4], 1.82 µM; in [5], 2.92 µM; in [6] it was 1.64 µM. The TGI in test [7] is 3.09 µM; in [8] it was 3.11 µM; in test [9], 2.37 µM; in [10] it was more than 100 µM.

Take `c1ccc(P(CCP(CCP(c2ccccc2)c2ccccc2)c2ccccc2)CCP(c2ccccc2)c2ccccc2)cc1` (stereo not drawn): the TGI in test [1] is more than 10 µM; in test [2], more than 10 µM; in test [3], more than 10 µM; in test [4], 2.84 µM; in test [5], more than 10 µM; in test [6], 3.04 µM. Besides, the TGI in test [7], in test [8], in test [9] and in test [10] was more than 10 µM each time. Further, the GI50 in test [2] is > 10 µM and 2.25 µM; in test [3] it was > 10 µM and 1.39 µM; in [5], > 10 µM and 4.18 µM; in test [7], > 10 µM and 3.58 µM.

For `Nc1nc(N)c(N=O)c(OCC2CCCCC2)n1`, the GI50 in [1] is 8.83 µM; in test [2] it was 2.25 µM; in [4], 4.77 µM; in test [5] it was 11.8 µM; in test [6], 3.46 µM; in test [7] it was 8.07 µM. Also, the values for the GI50 in [8], in [9] and in test [10] were 17.2 µM, 8.04 µM and 6.22 µM, respectively. The TGI is more than 100 µM in test [1]; 8.41 µM and 59.2 µM in [2]; more than 100 µM in test [3]; more than 100 µM in test [4]; > 100 µM and 52.2 µM in test [5]; more than 100 µM in [6]. For the same compound, the TGI is 77.9 µM and > 31.4 µM in test [7]; > 100 µM and 57.8 µM in test [8]; 42.3 µM and 48.1 µM in [9]; > 85.9 µM and 27.4 µM in [10].

Consider `C/C=C/[C@@H]1OC(=O)C2=C[C@@H](O)[C@@H](/C=C/C)O[C@H]21`, for which the GI50 in test [1] was 0.271 µM; in test [2], 2.4 µM; in test [3], 16.9 µM; in test [4], 6.44 µM; in test [5], 3.23 µM; in [6], 14.4 µM. In addition, the GI50 in test [7] was 12.9 µM; in test [8], 13.6 µM; in test [9] it was 6.27 µM; in test [10], 16.8 µM. The TGI in test [1] was 5.77 µM; in test [2], 9.12 µM; in [3] it was 38.9 µM; in [4] it was 18.5 µM; in [5], 8.12 µM; in test [6], more than 100 µM. Moreover, the TGI in [7] was 29.3 µM; in [8], 35 µM; in [9], 28.8 µM; in [10], more than 100 µM.
